Experimental data taken from patent publication US20250152580A1, “METHODS FOR TREATING IMMUNE DISEASES” (Ascentage Pharma (Suzhou) co., Ltd., priority 2022, published 2025).
Entries after “also recorded” stand apart in the source; their conditions may differ.

Legend:
[1] = system: CD4+CD45RBhigh T transfer IBD model; assay: CD4+CD45RBhigh T transfer inflammatory bowel disease (IBD) model in CB17 SCID mice; type: in vivo
Text: 1. Experimental Protocol for CD4^+CD45RB^high T Transfer Inflammatory Bowel Disease (IBD) Model in CB17 SCID Mice.
Balb/c mice and CB17 SCID were purchased from Zhejiang Vital River Laboratory Animal Technology Co., Ltd. (Zhejiang, China). Animals were housed and handled in a temperature-controlled environment with a 12-h light/12-h dark cycle. A total of 50 CB17 SCID mice were assigned to 5 groups by randomization based on body weight.
CD4^+ T cells were isolated from the spleens of Balb/c mice using negative magnetic bead separation kit (Miltenyi Biotec) according to the manufacturers' instructions. The CD4^+CD45RB^high T and CD4^+CD45RB^low T cells were selected by flow cytometry and used for model construction. The isolated CD4^+CD45RB^high T cells were intraperitoneally injected into 40 recipient CB17 SCID mice with 5×10^5 cells per animal. Ten mice in Group 1 (G1) were intraperitoneally injected with 5×10^5 CD4^+CD45RB^low T cells as negative control group.
40 recipient CB17 SCID mice injected with CD4^+CD45RB^high T cells were assigned to four groups (n=10 for each group): G2, vehicle control (po, qd, from day 0 to day 42); G3, 30 mg/kg Cpd. 4 (po, qd, from day 0 to day 42); G4, 30 mg/kg Cpd. 4 (po, qd, from day 14 to day 42); G5, 100 mg/kg Cpd. 4 (po, qd, from day 14 to day 42); G6, positive control, anti-mTNF-α 25 mg/kg (ip, Q3D, from day 14 to day 42).
Clinical signs of IBD were assessed every 3 day based on the scores of disease activity index (DAI) which was evaluated from two parameters using a scoring system from 0 to 4: stool consistency (0, normal stool; 1, soft but still formed stool; 2, soft and not formed stool; 3, very soft and wet stool; 4, watery diarrhea) and body weight loss (0, no body weight loos; 1, 1-5% body weight loss; 2, 6-10% body weight loss; 3, 11-20% body weight loss; 4, >20% body weight loss).
At the end of experiment, the animals were euthanized, dissected and the entire colon was quickly removed and gently cleared of feces.
The entire colon was weighed, and the total length was measured. […] Cpd.
The colons were Swiss-rolled and fixed with neutralized PFA followed by H&E staining. After that, the pathologists from WuXi clinical pathological analysis platform, who were blinded to animal ID, reviewed the H&E staining and scored. […]
At the end of the study (day 42), all the animals were sacrificed by CO2, and the colon tissues were collected and fixed in 10% formalin for pathological analysis (H&E and LFB staining). The histopathological score was evaluated microscopically in a blinded manner.

[2] = system: OXA induced DTH model; assay: OXA induced delayed type hypersensitivity (DTH) model in Balb/c mice; type: in vivo
Text: A delayed-type hypersensitivity (DTH) reaction is an expression of cell-mediated immunity and plays a major role in the pathology and chronicity of many inflammatory disorders. Delayed-type hypersensitivity (DTH) reactions can be induced by allergens, including oxazolone.
Female Balb/c mice (6-8 weeks old) were obtained from Shanghai Jihui Experiment Animal Feeding Co. Ltd. Animals were housed and handled in a temperature-controlled environment with a 12-h light/12-h dark cycle. A total of 48 mice were assigned to 6 groups by randomization based on body weight.
To induce DTH, all right ears of mice except the G1 sham control group were applied with oxazolone (OXA). Briefly, skin inflammation was induced by topical administration with 100 μL of 1.5% OXA dissolved in acetone/olive oil on day 1 and repeated 20 μL of 1% OXA on day 6. G1 sham control group was treated same volume of vehicles. Therapeutic group of 100 mg/kg Cpd. 4 (po, 0 h/6 h after challenge on day 6) or 0.05 mg/ear dexamethasone (topical, 1 h/6 h after challenge on day 6) were applied to the mice. […]
Ear thickness were measured with a micrometer before challenge on day 6 and 24 h after oxazolone challenge on Day 7 and reported as the mean change in ear thickness. […]

**Q.** Which “disease activity index (DAI), clinical score of IBD” value ([1]; Cpd. 4 po qd: G3 30 mg/kg day 0-42, G4 30 mg/kg day 14-42, G5 100 mg/kg day 14-42, anti-mTNF-α 25 mg/kg ip Q3D day 14-42, compared with Vehicle) does the source give for O=C(NS(=O)(=O)c1ccc(NC[C@H]2COCCO2)c([N+](=O)[O-])c1)c1ccc(N2CCN(CC3=C(c4ccc(Cl)cc4)CC4(CCC4)CC3)CC2)cc1Oc1cnc2[nH]ccc2c1 [Cpd. 4, (S)-N-((4-(((1,4-dioxan-2-yl)methyl)amino)-3-nitrophenyl)sulfonyl)-2-((1H-pyrrolo[2,3-b]pyridin-5-yl)oxy)-4-(4-((6-(4-chlorophenyl)spiro[3.5]non-6-en-7-yl)methyl)piperazin-1-yl)benzamide] here?
**A.** The value was “significantly reducing the clinical score; also recorded: significantly reduced”.

**Q.** What about the “pathological score (colon, H&E)” value ([1]; day 42, all Cpd. 4 groups, compared with Vehicle) of the same compound?
**A.** The value was “significantly reduced; also recorded: significantly decreased”.

**Q.** What about the colon weight ([1]; end of experiment, Cpd. 4 all treatment groups (G3, G4, G5), anti-mTNF-α 25 mg/kg ip Q3D, vehicle 439.1 mg) of the same compound?
**A.** Its colon weight is “significantly decreased”.

**Q.** And the colon length ([1]; end of experiment, Cpd. 4 in G3 (30 mg/kg day 0-42) and G5 (100 mg/kg day 14-42), anti-mTNF-α 25 mg/kg ip Q3D, vehicle 7.72 cm)?
**A.** The colon length was “significantly increased”.

**Q.** And the “increase of ear thickness (day 7 − day 6)” value ([2]; 100 mg/kg po 0 h/6 h after challenge on day 6, vehicle 0.24±0.01 mm)?
**A.** Its value is 0.22±0.03 mm.

**Q.** And the “increase of ear thickness (in words)” value ([2]; Cpd. 4 100 mg/kg po, dexamethasone 0.05 mg/ear topical 1 h/6 h after challenge on day 6)?
**A.** The value was “moderately reduced”.
